Patent publication US20250073167A1, “A POLYMER TO INCREASE THE BIOAVAILABILITY OF A PHARMACEUTICAL COMPOUND” (CATALYA, priority 2022, published 2025)

Test: Oral delivery of fluorescein with 10 kDa polymer: bioavailability and recovery in blood, urine and feces
Assay type: in vivo, rat
Conditions: ingestion
Protocol: Eighteen rats have been selected and have been given either no polymer (rats 1, 2, 10, 11), or the polymer (10 kDa) at a dose of 5 mg/kg (rats 13-15), 50 mg/kg (rats 4-6, 12, 16-18) or 300 mg/kg (rats 3 and 7-9). Fluorescein has been either covalently coupled to the polymer (rats 4-9 and 13-18; labelled as PO or IV in the figures), or physically (non-covalently) adhered to the polymer (rats 3 and 12); labelled as PO* or IV* in the figures.
The polymer has been administered either per ingestion (PO or PO*) or by injection (IV or IV*). Blood concentration of the polymer-fluorescein (FIG. 1), or of the (potentially-free) fluorescein (FIG. 2) has been measured in the blood, in the feces (FIG. 4) and in urine (FIG. 3).

ingested fluorescein found in the feces (rats (FIG. 4)): > 99%
ingested fluorescein internalized (rats, without the polymer): less than 1%
Structure (SMILES): O=C1OC2(c3ccc(O)cc3Oc3cc(O)ccc32)c2ccccc21 [free fluorescein, fluorescein]
